According to patent US9044474B2, “Compositions and methods for increasing drug efficacy in cancer” (The Ohio State University, priority 2010, dated 2015):
Structures can show the parent of a compound that is named as a salt.

Key:
[1] = tested on: IRE1; experiment: XBP1 splicing (IRE1 activity) PCR in CLL cells; assay type: cell-based, human
Experimental: RNA was extracted using TRIzol reagent (Invitrogen, Carlsbad, Calif.) and purified using QIAGEN RNeasy columns (Qiagen, Valencia, Calif.). cDNA was prepared with SuperScript First-Strand Synthesis System (Invitrogen). Real-time PCR was performed using primers purchased from Applied Biosystems. Detection was performed using an ABI Prism 7700 sequence detection system (Applied Biosystems). Average relative expression (treatment compared with vehicle) was normalized to the internal control gene CD52. Primers to detect spliced XBP1 were designed using Primer 3 software and purchased from IDT. Samples were analyzed on 10% acrylamide gels.

[2] = tested on: caspases 4 and 8; experiment: Caspase 4 and 8 activity in samples from CLL patients treated with flavopiridol; assay type: in vivo, human; conditions: 4.5 hours following flavopiridol infusion
Experimental: The presence of active caspase enzymes was determined by the AFC assay. Briefly, lysates containing approximately 3×10^6 cells were incubated with 50 μM LEVD-AFC (caspase 4 substrate) or LETD-AFC (caspase 8 substrate) from MP Biomedicals (Solon, Ohio) in 2× cytobuffer from BioVision (Exton, Pa.) containing 10 mM dithiothretiol (DTT). Caspase 4 activity was measured one hour after addition of substrate and caspase 8 activity was measured 30 minutes after addition of substrate. Release of free AFC was measured with a Beckman-Coulter DTX 880 multimode detector (Filters: excitation, 405/10 nm; emission, 535/25 nm). Caspase 4 inhibitor Z-YVAD-FMK was purchased from R&D Systems.

[3] = tested on: CLL cells; experiment: Intracellular calcium in CLL cells; assay type: cell-based, human; conditions: CLL cells treated with flavopiridol
[4] = tested on: CLL patients; conditions: CLL patients treated with flavopiridol; cited from earlier work
[5] = tested on: JNK1 and p38MAPK; experiment: Immunoblot of phosphorylated JNK1 and p38MAPK in samples from CLL patients treated with flavopiridol; assay type: in vivo, human; conditions: samples 4.5 hours following flavopiridol infusion
Experimental: (§1) Proteins extracted from whole cell lysates (50 μg/lane) were separated on polyacrylamide gels and transferred on nitrocellulose membrane. Antibodies used for immunoblots included LC3, IRE1α, TRAF2, PI3K III, ATG4C, ATG5-12, UVRAG, Beclin-1 (Cell Signaling, Boston, Mass.), GAPDH, Nrf2, ASK1, ULK1 (Santa Cruz Biotechnology), and Bif-1, ATG14-Barkor (Sigma-Aldrich, St Louis, Mo.). Species-appropriate secondary antibodies were obtained from BioRad Laboratories (Hercules, Calif.). Following antibody incubations, proteins were detected using a chemiluminescent substrate (BioRad Laboratories). For co-immunoprecipitations, TrueBlot beads (eBiosciences, San Diego, Calif.) and One-hour IP Western kit (GenScript, Piscataway, N.J.) were used according to manufacturer protocols. Quantification was done using FluorChem Q (Alpha Innotech, San Leandro Calif.).

[6] = tested on: PERK; experiment: PERK activity by eIF2α phosphorylation immunoblot in CLL cells; assay type: cell-based, human
Experimental: as §1

[7] = tested on: ATF6; experiment: ATF6 nuclear translocation by confocal fluorescence microscopy in CLL cells; assay type: cell-based, human; conditions: CLL patient cells, flavopiridol 2 μM or thapsigargin 1 μM, 4 hours
Experimental: After 4 hours exposure to agents, cells were washed in phosphate-buffered saline (PBS) and made adherent on a microscope slide by centrifugation in a Cytospin3 (Shandon) centrifuge. Immediately after cytospin, cells were fixed in cold acetone. Next, the cells were incubated in blocking solution (2% bovine serum albumin in PBS) and stained for LC3 (Cell Signaling, Boston, Mass.)) and Lamp2 (Santa Cruz Biotechnology, Santa Cruz, Calif.) by incubating separately with the respective primary antibodies over night, in 4° C., followed by incubation with fluorescent secondary antibodies (Invitrogen, Carlsbad, Calif.): Alexa fluor 594 (red) anti-rabbit for LC3 and Alexa fluor 488 (green) anti-mouse for Lamp2. Nuclei were stained blue with DAPI (Vector Laboratories, Burlingame, Calif.). Images were taken using a 60× objective and 4× digital zoom with Olympus Fluoview 1000 Laser Scanning Confocal microscope at the Ohio State University Campus Microscopy and Imaging Facility. ATF6 antibody was purchased from LifeSpan Biosciences (Seattle, Wash.) and Nrf2 was from Santa Cruz Biotechnology (Santa Cruz, Calif.). Nuclei were evaluated for ATF6 and Nrf2 using confocal microscopy to collect Z stacks, approximately 45 slices per cell, 0.2 μm each.

[8] = tested on: CLL cells; experiment: LC3-Lamp2 co-localization (autophagosome-lysosome fusion) by confocal microscopy in CLL cells; assay type: cell-based, human; conditions: CLL cells, 4 hours, flavopiridol 2 μM
Experimental: After 4 hours exposure to agents, cells were washed in phosphate-buffered saline (PBS) and made adherent on a microscope slide by centrifugation in a Cytospin3 (Shandon) centrifuge. Immediately after cytospin, cells were fixed in cold acetone. […] Nuclei were stained blue with DAPI (Vector Laboratories, Burlingame, Calif.). Images were taken using a 60× objective and 4× digital zoom with Olympus Fluoview 1000 Laser Scanning Confocal microscope at the Ohio State University Campus Microscopy and Imaging Facility. ATF6 antibody was purchased from LifeSpan Biosciences (Seattle, Wash.) and Nrf2 was from Santa Cruz Biotechnology (Santa Cruz, Calif.). Nuclei were evaluated for ATF6 and Nrf2 using confocal microscopy to collect Z stacks, approximately 45 slices per cell, 0.2 μm each.
LC3 intensity and number of dots per cell were both assessed in the fluorescence images. Integrated intensity was measured using Metamorph v.7.0. To calculate the number of “dots” (local extreme point in pixel-intensity profile at which a number of high-intensity pixels form a cluster), a Gaussian filter was first applied to reduce noise. Cells were enumerated electronically by an improved watershed-based algorithm. To quantify co-localization, two binary nuclei images—red (R) and green (G)—are obtained. […]

In the case of `CN1CC[C@H](c2c(O)cc(O)c3c(=O)cc(-c4ccccc4Cl)oc23)[C@H](O)C1` [flavopiridol, (cis-5,7-dihydroxy-2-(2-chlorophenyl)-8-[4-(3-hydroxy-1-methyl)-piperidin-yl]-1-benzopyran-4-one)hydrochloride], the “IRE1 activity (splicing of IRE1 substrate XBP1)” value ([1]; CLL cells) is reported as “no evidence of IRE1 activity”, the “CLL samples with deficiency in XBP1 splicing” value ([1]; CLL samples tested) is reported as 8 of 10 and the “patient samples with at least a two-fold increase in activity of caspases 4 and 8” value [2] is reported as 13 of 20. For the same molecule, the intracellular calcium [3] was “increase of intracellular calcium”, the “CLL patients in whom drug resistance is usually observed” value [4] was “approximately 40%” and the “CLL patients with JNK1 and p38MAPK phosphorylation” value [5] was “five of ten”. The “PERK activity (phosphorylation of eIF2α)” value [6] was “minimally active”, the ATF6 nuclear translocation [7] was “increased nuclear translocation” and the “autophagy flux by LC3-Lamp2 co-localization, agent alone” value [8] was “unrestricted autophagy flux was demonstrated by co-localization of LC3 and Lamp2”.
